# Measured values reported in patent publication US20150011566A1, “N-PHENYLPIPERAZINE DERIVATIVES THAT ARE ANTAGONISTS OF A1A, A1D ADRENOCEPTORS AND 5-HT1A RECEPTORS FOR THE TREATMENT OF BENIGN PROSTATE HYPERPLASIA, PHARMACEUTICAL COMPOSITIONS CONTAINING THE SAME” (UNIVERSIDADE FEDERAL DO RIO DE JANEIRO-UFRJ, priority 2012, published 2015).
# Read-outs that look alike come from different tables or passages of the source.
# Key:
# 5-HT2A receptors = target: T1, 5-HT2A receptors (Rattus norvegicus, UniProt P14842); assay: [3H]-ketanserin binding to 5-HT2A receptors (rat cortex membranes)
# T1 construct: from tissue; host or cells: rat cortex membranes
# T1 sequence (P14842 whole entry): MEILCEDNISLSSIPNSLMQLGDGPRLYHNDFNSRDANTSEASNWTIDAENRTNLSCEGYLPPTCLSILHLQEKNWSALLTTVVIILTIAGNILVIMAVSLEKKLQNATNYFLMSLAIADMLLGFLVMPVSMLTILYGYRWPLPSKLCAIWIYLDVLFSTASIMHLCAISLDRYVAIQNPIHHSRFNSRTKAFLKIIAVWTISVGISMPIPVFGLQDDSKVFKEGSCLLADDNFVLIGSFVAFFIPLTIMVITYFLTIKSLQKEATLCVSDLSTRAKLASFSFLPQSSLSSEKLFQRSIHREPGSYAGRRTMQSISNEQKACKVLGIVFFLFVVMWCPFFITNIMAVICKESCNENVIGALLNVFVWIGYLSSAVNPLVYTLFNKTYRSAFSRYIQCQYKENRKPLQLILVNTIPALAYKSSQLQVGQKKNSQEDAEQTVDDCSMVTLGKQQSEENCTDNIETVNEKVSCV
# Protocol: Membrane preparations of rat cortex as described previously in the literature were performed. The organs were homogenized in a Potter with the aid of a motor unit (Fisatom) and Teflon piston in the proportion of 20 parts of 50 mM Tris HCl (pH 7.4 at 4° C.) for one piece of material, three times for 30 seconds each time, at intervals the solution was allowed to stand on ice for 1 minute.
# Then it was performed a centrifugation at 900×g for 10 minutes at 4° C. It was obtained a […] which was resuspended in solution cold 50 mM Tris-HCl (pH 7.4) and the same procedure was performed once more. The supernatant was then centrifuged at 48,000×g for 10 minutes at 4° C. yielding a pellet which was resuspended at a ratio of 20 parts of 50 mM Tris HCl (pH 7.4 at 4° C.) for one piece of material, and incubated at 37° C. for 10 minutes in order to remove the endogenous neurotransmitters. Finally, centrifugation two times more at 48,000×g was performed for 10 minutes at 4° C., and then the final pellet was resuspended in a solution of 50 mM Tris-HCl (pH 7.4).
# The binding assays for 5-HT2A receptors were performed as described in the literature. […] (solvent for dilution of the LDT's), to determine the total binding, or 50 μL non-radioactive ketanserin at 10 μM for the determination of nonspecific binding (final volume of 500 μL). Assays were performed in triplicate.
# (§1) After the incubation period, the reaction was stopped by adding 4 ml of ice-cold solution containing 5 mM Tris (pH 7.4), followed by vacuum filtration on glass fiber filter (GMF 3, Filtrak®) previously soaked with solution 0.5% polyethylenoimine The filters were washed three times with 4 mL of ice-cold solution containing 5 mM Tris (pH 7.4) under vacuum to remove all free radioligand. Then the filters were dried and placed in vials containing 5 ml scintillation fluid (4% PPO, 0.1% POPOP w/v in toluene). The radioactivity retained on the filters was then determined in a liquid scintillation counter (Packard Tri-Carb 1600 TR). […] To these receptors were also determined CI50 and Ki parameters.
# 5-HT1A receptors = target: T2, 5-HT1A receptors (Rattus norvegicus, UniProt P19327); assay: Binding of [3H]-8-OH-DPAT to 5-HT1A receptors (rat hippocampus membranes)
# T2 construct: Intrinsic Activity at Native 5-HT1A Receptors; from tissue; host or cells: rat hippocampus membranes
# T2 sequence (P19327 1-422): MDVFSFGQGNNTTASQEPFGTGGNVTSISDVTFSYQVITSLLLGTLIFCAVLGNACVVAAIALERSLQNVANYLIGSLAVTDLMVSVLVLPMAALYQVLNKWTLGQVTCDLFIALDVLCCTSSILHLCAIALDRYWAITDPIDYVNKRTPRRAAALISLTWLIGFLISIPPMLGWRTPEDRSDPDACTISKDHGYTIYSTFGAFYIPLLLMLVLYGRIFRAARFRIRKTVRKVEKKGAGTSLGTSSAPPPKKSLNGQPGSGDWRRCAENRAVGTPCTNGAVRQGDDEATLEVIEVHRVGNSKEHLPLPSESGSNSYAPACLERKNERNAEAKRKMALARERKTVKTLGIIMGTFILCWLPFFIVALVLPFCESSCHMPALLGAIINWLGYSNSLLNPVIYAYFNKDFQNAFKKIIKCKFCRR
# Protocol: Membrane preparations of rat hippocampus according to previously described by HALL et al (1985) and PEROUTKA (1986) were performed. The homogenization and centrifugation steps were performed identically to that described above for receptors α2A and 5-HT2A receptors.
# The binding assays for the 5-HT1A receptors were performed as described previously in the literature and previously standardized in the laboratory through saturation experiments. […] (solvent for dilution of LDT's) for the determination of total binding, or 50 μL non-radioative serotonin at 10 μM to determine the non-specific binding (final volume of 500 μL). Assays were performed in triplicate. […] Assays were performed in triplicate.
# as §1, with “polyethylenoimine.” for “polyethylenoimine”, “(composition: 4%” for “(4%”, “w/p” for “w/v”, “For” for “To”, “the […]” for “CI50”
# [1] = Table 11, Cheng-Prusoff, read-out: Ki
# [2] = Table 8, Cheng-Prusoff, read-out: Ki
# [3] = Table 9, agonist radioligand [3H] 8-OH-DPAT, read-out: Ki high
# [4] = Ki high (nM), Table 13, agonist radioligand [3H] 8-OH-DPAT
# [5] = Table 10, Cheng-Prusoff, read-out: Ki
# [6] = Table 10, read-out: log CI50 ± EPM (converted)
SMILES,log IC50 (M) (5-HT2A receptors; Table 11),Ki (5-HT2A receptors; [1]) [nM],log IC50 (M) (5-HT1A receptors; Table 8),Ki (5-HT1A receptors; [2]) [M],IC50 (5-HT1A receptors) [nM],further results
CCCCCCCN1CCN(c2ccccc2OC)CC1 [LDT 67],−5.53 ± 0.13b M,1890,−7.42 ± 0.19b M,1.8e-08,,Ki (5-HT1A receptors; [3]): 1.8e-08 M
COc1ccc(CCN2CCN(c3ccccc3OC)CC2)cc1OC [LDT 5],,,,,6.17,"IC50 (5-HT2A receptors): 389 nM; Ki (5-HT2A receptors): 248 nM; Ki (5-HT1A receptors; KI (M), Table 7, Cheng-Prusoff): 2.54e-09 M; Ki (5-HT1A receptors; [4]): 3.89e-09 M"
COc1ccccc1N1CCN(CCC2CCCCC2)CC1 [LDT 6],,,,,,"Ki (5-HT2A receptors; [5]): 376 nM; IC50 (5-HT2A receptors; [6]): 589 nM; Ki (5-HT1A receptors; Table 7, Cheng-Prusoff, read-out: KI): 2.42e-10 M; IC50 (5-HT1A receptors; Table 7, read-out: log CI50 ± EPM (converted)): 0.589 nM"
CCCN1CCN(c2ccccc2OC)CC1 [LDT 63],−4.86 ± 0.13 M,8850,−6.37 ± 0.03 M,1.91e-07,,
COc1cccc(CCN2CCN(c3ccccc3OC)CC2)c1 [LDT 3],,,,,2.75,"IC50 (5-HT2A receptors): 70.8 nM; Ki (5-HT2A receptors): 45.2 nM; Ki (5-HT1A receptors; KI (M), Table 7, Cheng-Prusoff): 1.13e-09 M; Ki (5-HT1A receptors; [4]): 1.79e-09 M"
CCCCCN1CCN(c2ccccc2OC)CC1 [LDT 65],,,,,38,"IC50 (5-HT2A receptors): 4570 nM; Ki (5-HT2A receptors): 2930 nM; Ki (5-HT1A receptors; Ki (nM), Table 8, Cheng-Prusoff): 1.8e-08 M; Ki (5-HT1A receptors; Ki high (nM), Table 9, agonist radioligand [3H] 8-OH-DPAT): 1.8e-08 M"
CCN1CCN(c2ccccc2O)CC1 [LDT 70],−4.20 ± 0.03a M,40400,−6.15 ± 0.08 M,3.16e-07,,
CCOc1ccccc1N1CCN(CCc2ccc3c(c2)OCO3)CC1 [LDT 8],,,,,0.0575,"Ki (5-HT2A receptors; [5]): 248 nM; IC50 (5-HT2A receptors; [6]): 389 nM; Ki (5-HT1A receptors; [4]): 1.8e-11 M; Ki (5-HT1A receptors; Ki, text b157): 2.37e-11 M"
COc1ccc(CCN2CCN(c3ccccc3OC)CC2)cc1 [LDT 4],,,,,2.4,"IC50 (5-HT2A receptors): 69.2 nM; Ki (5-HT2A receptors): 44.2 nM; Ki (5-HT1A receptors; KI (M), Table 7, Cheng-Prusoff): 9.88e-10 M"
CCCCCCCCN1CCN(c2ccccc2OC)CC1 [LDT 68],−5.64 ± 0.08b M,1470,−7.70 ± 0.30b M,9e-09,,Ki (5-HT1A receptors; [3]): 9e-09 M
CCN1CCN(c2ccccc2)CC1 [LDT 39],−5.16 ± 0.16 M,4440,−5.93 ± 0.13 M,5.2e-07,,
COc1ccccc1N1CCN(CCc2ccccc2)CC1 [LDT 2],,,,,3.02,"IC50 (5-HT2A receptors): 74.1 nM; Ki (5-HT2A receptors): 47.4 nM; Ki (5-HT1A receptors; KI (M), Table 7, Cheng-Prusoff): 1.24e-09 M"
CCOc1ccccc1N1CCN(CCc2ccc(OC)c(OC)c2)CC1 [LDT 245],,,,,9.33,"Ki (5-HT1A receptors; KI (M), Table 7, Cheng-Prusoff): 3.8e-09 M"
CCCCN1CCN(c2ccccc2OC)CC1 [LDT 64],−5.06 ± 0.09 M,5580,−6.72 ± 0.19 M,8.4e-08,,
CCN1CCN(c2ccccc2OC)CC1 [LDT 62],−5.00 ± 0.06 M,6410,−6.47 ± 0.10 M,1.47e-07,,
CCOc1ccccc1N1CCN(CC)CC1 [LDT 69],−5.02 ± 0.06 M,6120,−6.86 ± 0.30 M,6.2e-08,,
CCCCCCN1CCN(c2ccccc2OC)CC1 [LDT 66],−5.57 ± 0.16b M,1720,−7.93 ± 0.20a M,5e-09,,Ki (5-HT1A receptors; [3]): 5e-09 M
